Source: US12173018B2, “Penicillin-binding protein inhibitors” (priority 2018, dated 2024)
In brackets after ≈: the same amount, converted by molar mass. Like-named read-outs stand apart in the source and are kept apart here.

Legend:
Format in all cases: cell-based
[1] = system: E. coli ATCC 25922; assay: Broth microdilution MIC, E. coli ATCC 25922; settings: Escherichia coli
Method in brief: (§1)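 Colonies from Mueller Hinton II agar were grown 3-5 hours at 37° C in cation-supplemented broth, adjusted by OD600, then added to 2-fold compound dilutions at 5×10^5 CFU/mL. After 16-20 hours at 37° C, MICs were scored visually.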

[2] = system: E. coli 901C; assay: microbe, parasite or virus in culture; settings: Escherichia coli; hyper-permeable E. coli 901C, broth microdilution; read-out: MIC E. coli 901C
Method in brief: as §1

[3] = system: E. coli AG100A; assay: microbe, parasite or virus in culture; settings: Escherichia coli, read-out: MIC E. coli AG100A
Method in brief: as §1

[4] = system: E. coli D22; assay: microbe, parasite or virus in culture; settings: Escherichia coli; hyper-permeable E. coli D22, broth microdilution; read-out: MIC E. coli D22
Method in brief: as §1

[5] = system: K. pneumoniae SI-117; assay: microbe, parasite or virus in culture; settings: Klebsiella pneumoniae, SI117, read-out: MIC K. pneumoniae SI-117
Method in brief: as §1

[6] = system: K. pneumoniae UMM; assay: microbe, parasite or virus in culture; settings: Klebsiella pneumoniae; K. pneumoniae UMM producing SHV-5 and KPC-2; read-out: MIC K. pneumoniae UMM
Method in brief: as §1

[7] = system: P. aeruginosa (ΔmexAB-oprM); assay: microbe, parasite or virus in culture; settings: Pseudomonas aeruginosa, read-out: MIC P. aeruginosa ΔmexAB-OprM
Method in brief: as §1

[8] = system: P. aeruginosa ATCC 35151; assay: microbe, parasite or virus in culture; settings: Pseudomonas aeruginosa, ATCC35151; hyper-permeable P. aeruginosa ATCC 35151; read-out: MIC P. aeruginosa ATCC 35151
Method in brief: as §1

[9] = system: P. aeruginosa PAO1; assay: Broth microdilution MIC, P. aeruginosa PAO1; settings: Pseudomonas aeruginosa
Method in brief: as §1

[10] = system: A. baumannii ATCC 19606; assay: Broth microdilution MIC, A. baumannii ATCC 19606; settings: Acinetobacter baumannii
Method in brief: as §1

[11] = system: N. gonorrhoeae FA1090; assay: Liquid broth MIC, N. gonorrhoeae FA1090; settings: Neisseria gonorrhoeae; N. gonorrhoeae FA1090, liquid broth; read-out: Minimum Inhibitory Concentration, N. gonorrhoeae FA1090
Method in brief: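 Broth microdilution, 2-fold compound series; start inoculum 5×10^5 CFU/mL (OD600-adjusted, GC broth pH 7.2, Kellogg's suppl.). 40-42 h, 36° C, 5% CO2. MIC = lowest conc., no visible growth.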

[12] = ATCC25922, E. coli ATCC 25922, broth microdilution, read-out: MIC E. coli 25922
[13] = P. aeruginosa PAO1, broth microdilution, read-out: MIC P. aeruginosa PAO1
[14] = ATCC19606, A. baumannii ATCC 19606, broth microdilution, read-out: MIC A. baumannii ATCC 19606
[15] = ATCC25922, read-out: MIC E. coli 25922
[16] = PAO1, read-out: MIC P. aeruginosa PAO1
[17] = ATCC19606, read-out: MIC A. baumannii ATCC 19606

Structure (SMILES) | MIC [1, 12] | MIC [2] | MIC [3] | MIC [4] | MIC [5] | MIC [6] | MIC [7] | MIC [8] | MIC [9, 13] | MIC [10, 14] | MIC [11] | MIC [1, 15] | MIC [9, 16] | MIC [10, 17]
CCN1CCN(C(=O)N[C@@H](C(=O)N[C@H]2Cc3ccc(F)c(C(=O)O)c3OB2O)c2ccc(O)c(O)c2Cl)C(=O)C1=O [Example 189, (R)-3-((R)-2-(2-chloro-3,4-dihydroxyphenyl)-2-(4-ethyl-2,3-dioxopiperazine-1-carboxamido)acetamido)-7-fluoro-2-hydroxy-3,4-dihydro-2H-benzo[e][1,2]oxaborinine-8-carboxylic acid] | 2 to 4 µg/mL | 0.5 to 1 µg/mL | 0.5 to 1 µg/mL | 0.5 to 1 µg/mL | 0.5 to 1 µg/mL | 0.5 to 1 µg/mL | < 0.25 µg/mL | < 0.25 µg/mL | < 0.25 µg/mL | < 0.25 µg/mL | 0.25 to 0.5 µg/mL (≈ 0.422 to 0.844 µM) | – | – | –
CCN1CCN(C(=O)N[C@@H](C(=O)N[C@H]2Cc3cccc(C(=O)O)c3OB2O)c2ccc(O)c(O)c2Cl)C(=O)C1=O [Example 190, (R)-3-((R)-2-(2-chloro-3,4-dihydroxyphenyl)-2-(4-ethyl-2,3-dioxopiperazine-1-carboxamido)acetamido)-2-hydroxy-3,4-dihydro-2H-benzo[e][1,2]oxaborinine-8-carboxylic acid] | 2 to 4 µg/mL | < 0.25 µg/mL | < 0.25 µg/mL | 0.5 to 1 µg/mL | 2 to 4 µg/mL | 0.5 to 1 µg/mL | < 0.25 µg/mL | < 0.25 µg/mL | 0.5 to 1 µg/mL | < 0.25 µg/mL | 0.25 to 0.5 µg/mL (≈ 0.435 to 0.87 µM) | – | – | –
CCN1C[C@@H](C)N(C(=O)NC(C(=O)N[C@H]2Cc3cccc(C(=O)O)c3OB2O)c2ncc(O)cc2F)C(=O)C1=O (stereo partly drawn) [Example 191, (3R)-3-(2-((R)-4-ethyl-6-methyl-2,3-dioxopiperazine-1-carboxamido)-2-(3-fluoro-5-hydroxypyridin-2-yl)acetamido)-2-hydroxy-3,4-dihydro-2H-benzo[e][1,2]oxaborinine-8-carboxylic acid] | > 128 µg/mL | 0.5 to 1 µg/mL | 8 to 16 µg/mL | 8 to 16 µg/mL | > 128 µg/mL | > 128 µg/mL | 32 to 64 µg/mL | 2 to 4 µg/mL | > 128 µg/mL | > 128 µg/mL | 0.25 to 0.5 µg/mL (≈ 0.449 to 0.897 µM) | – | – | –
CCN1CCN(C(=O)NC(C(=O)N[C@H]2Cc3ccc(F)c(C(=O)O)c3OB2O)c2ccc(O)c(O)c2Cl)C(O)C1=O (stereo partly drawn) [Example 194, (3R)-3-(2-(2-chloro-3,4-dihydroxyphenyl)-2-(4-ethyl-2-hydroxy-3-oxopiperazine-1-carboxamido)acetamido)-7-fluoro-2-hydroxy-3,4-dihydro-2H-benzo[e][1,2]oxaborinine-8-carboxylic acid] | – | 8 to 16 µg/mL | 8 to 16 µg/mL | 8 to 16 µg/mL | 8 to 16 µg/mL | 8 to 16 µg/mL | 0.5 to 1 µg/mL | < 0.25 µg/mL | – | – | 4 to 8 µg/mL (≈ 6.73 to 13.5 µM) | 32 to 64 µg/mL | 8 to 16 µg/mL | 0.5 to 1 µg/mL
NS(=O)(=O)c1ccc(C(NC(=O)N2CCN(CCF)C(=O)C2=O)C(=O)N[C@H]2Cc3cccc(C(=O)O)c3OB2O)c(F)c1 (stereo partly drawn) [Example 204, (3R)-3-(2-(2-fluoro-4-sulfamoylphenyl)-2-(4-(2-fluoroethyl)-2,3-dioxopiperazine-1-carboxamido)acetamido)-2-hydroxy-3,4-dihydro-2H-benzo[e][1,2]oxaborinine-8-carboxylic acid] | 32 to 64 µg/mL | < 0.25 µg/mL | 2 to 4 µg/mL | 2 to 4 µg/mL | > 128 µg/mL | 32 to 64 µg/mL | 8 to 16 µg/mL | 0.5 to 1 µg/mL | > 128 µg/mL | > 128 µg/mL | 0.25 to 0.5 µg/mL (≈ 0.401 to 0.802 µM) | – | – | –
CCN1CCN(C(=O)NC(C(=O)N[C@H]2Cc3cccc(C(=O)O)c3OB2O)c2nc(N)sc2F)C(=O)C1=O (stereo partly drawn) [Example 205, (3R)-3-(2-(2-amino-5-fluorothiazol-4-yl)-2-(4-ethyl-2,3-dioxopiperazine-1-carboxamido)acetamido)-2-hydroxy-3,4-dihydro-2H-benzo[e][1,2]oxaborinine-8-carboxylic acid] | 2 to 4 µg/mL | < 0.25 µg/mL | 0.5 to 1 µg/mL | 0.5 to 1 µg/mL | 32 to 64 µg/mL | > 128 µg/mL | 2 to 4 µg/mL | < 0.25 µg/mL | > 128 µg/mL | 32 to 64 µg/mL | < 0.125 µg/mL | – | – | –
CCN1C[C@H](C)N(C(=O)NC(C(=O)N[C@H]2Cc3ccc(F)c(C(=O)O)c3OB2O)c2ccc(O)c(O)c2Cl)C(=O)C1=O (stereo partly drawn) [Example 206, (3R)-3-(2-(2-chloro-3,4-dihydroxyphenyl)-2-((S)-4-ethyl-6-methyl-2,3-dioxopiperazine-1-carboxamido)acetamido)-7-fluoro-2-hydroxy-3,4-dihydro-2H-benzo[e][1,2]oxaborinine-8-carboxylic acid] | 2 to 4 µg/mL | < 0.25 µg/mL | < 0.25 µg/mL | 0.5 to 1 µg/mL | 2 to 4 µg/mL | 2 to 4 µg/mL | < 0.25 µg/mL | < 0.25 µg/mL | 2 to 4 µg/mL | < 0.25 µg/mL | 0.25 to 0.5 µg/mL (≈ 0.412 to 0.824 µM) | – | – | –
CCN1C[C@H](C)N(C(=O)NC(C(=O)N[C@H]2Cc3ccc(F)c(C(=O)O)c3OB2O)c2ncc(O)cc2F)C(=O)C1=O (stereo partly drawn) [Example 208, (3R)-3-(2-((S)-4-ethyl-6-methyl-2,3-dioxopiperazine-1-carboxamido)-2-(3-fluoro-5-hydroxypyridin-2-yl)acetamido)-7-fluoro-2-hydroxy-3,4-dihydro-2H-benzo[e][1,2]oxaborinine-8-carboxylic acid] | 8 to 16 µg/mL | < 0.25 µg/mL | 2 to 4 µg/mL | 2 to 4 µg/mL | 32 to 64 µg/mL | 8 to 16 µg/mL | 32 to 64 µg/mL | < 0.25 µg/mL | > 128 µg/mL | > 128 µg/mL | 0.25 to 0.5 µg/mL (≈ 0.435 to 0.869 µM) | – | – | –
CCN1CCN(C(=O)NC(C(=O)N[C@H]2Cc3cccc(C(=O)O)c3OB2O)c2ccc(S(N)(=O)=O)c(F)c2)C(=O)C1=O (stereo partly drawn) [Example 210, (3R)-3-(2-(4-ethyl-2,3-dioxopiperazine-1-carboxamido)-2-(3-fluoro-4-sulfamoylphenyl)acetamido)-2-hydroxy-3,4-dihydro-2H-benzo[e][1,2]oxaborinine-8-carboxylic acid] | 8 to 16 µg/mL | < 0.25 µg/mL | 2 to 4 µg/mL | 2 to 4 µg/mL | > 128 µg/mL | 32 to 64 µg/mL | 2 to 4 µg/mL | 0.5 to 1 µg/mL | > 128 µg/mL | > 128 µg/mL | < 0.125 µg/mL | – | – | –
CCN1CCN(C(=O)NC(C(=O)N[C@H]2Cc3cccc(C(=O)O)c3OB2O)c2ccc(C(=O)O)cc2)C(=O)C1=O (stereo partly drawn) [Example 212, (3R)-3-(2-(4-carboxyphenyl)-2-(4-ethyl-2,3-dioxopiperazine-1-carboxamido)acetamido)-2-hydroxy-3,4-dihydro-2H-benzo[e][1,2]oxaborinine-8-carboxylic acid] | – | < 0.25 µg/mL | 8 to 16 µg/mL | 2 to 4 µg/mL | > 128 µg/mL | 32 to 64 µg/mL | 8 to 16 µg/mL | < 0.25 µg/mL | – | – | < 0.125 µg/mL | 32 to 64 µg/mL | 32 to 64 µg/mL | > 128 µg/mL
O=C(O)c1cccc2c1OB(O)[C@@H](NC(=O)C(NC(=O)N1CCN(CCF)C(=O)C1=O)c1ccc(S(=O)(=O)NCCO)cc1)C2 (stereo partly drawn) [Example 213, (3R)-3-(2-(4-(2-fluoroethyl)-2,3-dioxopiperazine-1-carboxamido)-2-(4-(N-(2-hydroxyethyl)sulfamoyl)phenyl)acetamido)-2-hydroxy-3,4-dihydro-2H-benzo[e][1,2]oxaborinine-8-carboxylic acid] | > 128 µg/mL | 0.5 to 1 µg/mL | 8 to 16 µg/mL | 2 to 4 µg/mL | > 128 µg/mL | 32 to 64 µg/mL | 8 to 16 µg/mL | 2 to 4 µg/mL | > 128 µg/mL | > 128 µg/mL | 0.25 to 0.5 µg/mL (≈ 0.385 to 0.77 µM) | – | – | –
CCN1CCN(C(=O)NC(C(=O)N[C@H]2Cc3ccc(Cl)c(C(=O)O)c3OB2O)c2ncc(O)cc2F)C(=O)C1=O (stereo partly drawn) [Example 216, (3R)-7-chloro-3-(2-(4-ethyl-2,3-dioxopiperazine-1-carboxamido)-2-(3-fluoro-5-hydroxypyridin-2-yl)acetamido)-2-hydroxy-3,4-dihydro-2H-benzo[e][1,2]oxaborinine-8-carboxylic acid] | 32 to 64 µg/mL | 0.5 to 1 µg/mL | 8 to 16 µg/mL | 2 to 4 µg/mL | 32 to 64 µg/mL | 32 to 64 µg/mL | 32 to 64 µg/mL | < 0.25 µg/mL | > 128 µg/mL | > 128 µg/mL | 0.25 to 0.5 µg/mL (≈ 0.433 to 0.865 µM) | – | – | –
